Measurements published in ChEMBL document CHEMBL1926678, “Synthesis and bio-evaluation of human macrophage migration inhibitory factor inhibitor to develop anti-inflammatory agent” (Bioorg Med Chem, 2011).
pIC50: −log10 of the molar value. The source made the active and inactive calls. No cut-off for these calls is given here.

Legend:
[1] = target: T1, Macrophage migration inhibitory factor (Homo sapiens, UniProt P14174); experiment: Inhibition of human cloned MIF tautomerase activity expressed in Escherichia coli assessed as conversion of L-dopachrome methyl ester to indolecarboxylic acid methyl ester measured for 20 secs
T1 sequence (P14174 whole entry): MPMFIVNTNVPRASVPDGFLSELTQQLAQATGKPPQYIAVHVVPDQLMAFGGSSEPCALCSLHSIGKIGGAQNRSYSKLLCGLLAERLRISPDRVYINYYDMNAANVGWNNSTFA

[2] = target: Macrophage migration inhibitory factor (Mus musculus) (UniProt P34884); experiment: Inhibition of MIF-induced NF-kappaB nuclear translocation in mouse RAW264.7 cells at 100 uM pretreated for 30 mins before […] stimulation measured after 2 hrs by autoradiography; assay type: cell-based
Sequence of Macrophage migration inhibitory factor (Mus musculus) (P34884 2-115 limits assumed): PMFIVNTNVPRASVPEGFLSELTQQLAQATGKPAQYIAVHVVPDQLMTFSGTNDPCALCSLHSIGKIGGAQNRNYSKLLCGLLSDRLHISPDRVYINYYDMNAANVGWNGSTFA

[3] = Cytotoxicity against rat gastric mucosal cells assessed as cell viability at 200 uM after 24 hrs by MTT assay; assay type: cell-based, Gastric mucosa
[4] = target: Macrophage migration inhibitory factor (Mus musculus) (UniProt P34884); experiment: Inhibition of MIF-induced NF-kappaB nuclear translocation in mouse RAW264.7 cells assessed as reduction in complex formation at 40 to 80 uM pretreated for 30 mins measured after 4 hrs by electrophoretic mobility shift assay; assay type: cell-based
[5] = target: Macrophage migration inhibitory factor (Mus musculus) (UniProt P34884); experiment: Inhibition of MIF-induced NF-kappaB nuclear translocation in mouse RAW264.7 cells assessed as reduction in complex formation pretreated for 30 mins measured after 4 hrs by electrophoretic mobility shift assay; assay type: cell-based
[6] = target: Macrophage migration inhibitory factor (Mus musculus) (UniProt P34884); experiment: Inhibition of MIF-induced nitric oxide production in mouse RAW264.7 cells at 50 uM pretreatment by Griess assay; assay type: cell-based
[7] = system: RAW264.7; experiment: Cytotoxicity against mouse RAW264.7 cells assessed as cell viability at 200 uM after 24 hrs by MTT assay; assay type: cell-based; details: raw264.7, 24 h
[8] = target: Macrophage migration inhibitory factor (Mus musculus) (UniProt P34884); experiment: Inhibition of MIF-induced NF-kappaB nuclear translocation in mouse RAW264.7 cells assessed as inhibition of iNOS expression at 50 uM pretreated for 30 mins measured after 24 hrs by fluorescence spectrophotometry; assay type: cell-based

COc1ccc(C2=NOC(CC(=O)O)C2)cc1 (configuration not stated)
pIC50 [1]: 4.78

CCCCOC(=O)CC1CC(c2ccc(OC)cc2)=NO1 (configuration not stated)
pIC50 [1]: 4.95

COc1ccc(C2=NOC(C(C)=O)C2)cc1OC (configuration not stated)
pIC50 [1]: 4.45

COC(=O)CC1CC(c2ccc(O)cc2)=NO1 (racemic)
inhibition [2]: 70%

COC(=O)CC1CC(c2ccc(OC)cc2)=NO1 (configuration not stated)
pIC50 [1]: 4.71

COC(=O)CC1CC(c2ccc(OC(=O)CC3CC(c4ccc(OC)cc4)=NO3)cc2)=NO1 (configuration not stated)
pIC50 [1]: 4.43

COc1ccc(C2=NOC(CC(=O)Oc3cc(C)ccc3C(C)C)C2)cc1 (configuration not stated)
pIC50 [1]: 4.26

COc1cc(C2=NOC(CC(=O)O)C2)ccc1O (configuration not stated)
pIC50 [1]: 4.99

O=C(O)CC1CC(c2ccc(O)cc2)=NO1 (configuration not stated)
pIC50 [1]: 4.82

COC(=O)C1CC(c2ccc(OC)c(OC)c2)=NO1 (configuration not stated)
pIC50 [1]: 4.60

COc1cc(C2=NOC(COc3ccc(C=O)cc3)C2)ccc1O (configuration not stated)
Activity [3]: Non-toxic | inhibition [4]: 100% | inhibition [5]: Dose-dependent effect | inhibition [6]: Active | pIC50 [1]: 5.14 | Activity [7]: Non-toxic | inhibition [8]: Active
